Counter-ions that a name gives are not always drawn. Like-named read-outs stand apart in the source and are kept apart here.
Experiments:
[1] = In vivo drug release / pharmacokinetics, plasma galantamine by HPLC-ESI-MS/MS; parameters: species or system Sprague-Dawley (SD) rats; AUC0-t / AUC0-∞: unit not given here; conditions: 24 mg/kg
Procedure: Healthy Sprague-Dawley (SD) rats weighing 200–210 g were supplied by the Experimental Animal Breeding Center of Jinan Pengyue Co., Ltd. (Jinan, China). Before the drug administration, all rats were fasted for 12 h. But they were free access to diet and water throughout the study ([Zhang et al., 2019]). This study conformed to the Guide for the Care and Use of Laboratory Animals.
The study groups were carried out with twelve rats, which were randomly divided into two groups each with six rats. […] The blood samples of both groups were obtained via the orbital venous plexus and collected into heparinized tubes before and after dosing at 1 h, 3 h, 6 h, 12 h, 1 day, 2 days, 3 days, 4 days, 6 days, 8 days, 10 days, 12 days, […], 16 days, 18 days, 20 days. Other eighteen rats were randomly divided into the placebo group, negative group and oral administration group of six rats each. The placebo group received […] microspheres suspension in diluent at a single dose of 20 mg/kg by i.m., and the blood samples of this group were obtained the same as group I. The negative group was also carried out without any treatment, and the blood samples of this group were obtained the same as group I. The oral administration group was performed with GLT-PM (24 mg/kg), which was infused to stomach of rats. The blood samples of oral administration group were obtained before and after dosing at 15 min, 30 min, 45 min, 1 h, 1.5 h, 2 h, 3 h, 4 h, 6 h, 8 h, 12 h, 24 h, 48 h, 72 h. All blood samples were centrifuged immediately at 4,500 rpm for 10 min, and the plasma samples were separated into EP tubes and stored at −80°C until analysis ([Jiang et al., 2014]; [Zhang et al., 2019]).
After thawing at room temperature, 50 μL plasma samples were separately added into a […] centrifuge tube with the addition of 150 μL of acetonitrile. This mixture was vortex mixed for 1 min and centrifuged at 12700 rpm for 10 min. Then 100 μL supernate was mixed with 100 μL deionized water, and they was injected into vials for analysis ([Zhang et al., 2019]).
AB Sciex QTrap 6,500 + triple-quadrupole tandem mass spectrometer (Applied Biosystem Inc., Foster City, Calif, United States) was connected to Waters Acquity UPLC H-Class HPLC system (Waters Inc., Milford, Massachusetts, United States) via electro-spray ionization (ESI) interface. LC separation was performed on a Waters BEH C8 column (2.1 × 50 mm I.D., 1.7 μm) with mobile phase A (1 mmol/L ammonium acetate solution) and phase B (mixture of acetonitrile and methanol, 4:1, v/v) at 40°C, which was used with gradient elution as shown in Table 2 ([Suresha et al., 2014]). Quantitative analyses were performed in positive ion mode on a 6500 Q-trap mass analyzer (AB Sciex, Framingham, MA) coupled with electrospray ion source. Multiple reaction monitoring (MRM) mode was used for the quantification with ion spray voltage set at 5500 V, curtain gas 35 psi, […], and the interface heater temperature 450°C. […]
The plasma concentration-time data were analyzed with non-compartmental model by Phoenix WinNonlin 8.1 software (Pharsight Corporation, United States) to obtain the pharmacokinetic parameters, which included the area under the plasma concentration-time curve (AUC), half-life (T1/2) and mean residence time (MRT). The maximum plasma drug concentration (Cmax) and the time required to reach Cmax (Tmax) were directly read from the plasma concentration-time data.

[2] = Determination of solubility in different solvents (shaken 24 h, HPLC); type: physicochemical; conditions: 25 °C, thermodynamic from solid, mean ± SD
Procedure: Then they were shaken for 24 h with 100 rpm at 25°C. At last, the supernatant was directly injected into HPLC after high speed centrifugation (3,000 rpm for 10 min).

[3] = 25°C; ref Marco-Contelles et al., 2005; Saigal et al., 2013; cited from earlier work
[4] = Oral administration: rats, plasma galantamine
[5] = Sprague-Dawley, rat, plasma, po
[6] = n = 3, read-out: Solubility, benzyl alcohol
[7] = n = 3, read-out: Solubility, deionized water
[8] = n = 3, read-out: Solubility, dichloromethane
[9] = n = 3, read-out: Solubility, methanol

Structure (SMILES)	AUC0-t [1, 4]	AUC0-∞ [1, 4]	Cmax [1, 5]	Tmax [1, 5]	half-life [1, 5]	solubility at 24 h [2, 6]	solubility at 24 h [2, 7]	solubility at 24 h [2, 8]	solubility at 24 h [2, 9]	Solubility [3]
COc1ccc2c3c1O[C@H]1C[C@@H](O)C=C[C@@]31CCN(C)C2.COc1ccc2c3c1O[C@H]1C[C@@H](O)C=C[C@@]31CCN(C)C2.O=C(O)c1cc2ccccc2c(Cc2c(O)c(C(=O)O)cc3ccccc23)c1O [GLT-PM, galantamine pamoate]	532.54 ± 73.08	532.91 ± 72.92	119 ± 44.6 ng/mL	0.96 h	4.32 h	357300 ± 210 µg/mL	200 ± 20 µg/mL	8720 ± 520 µg/mL	1010 ± 210 µg/mL	–
COc1ccc2c3c1O[C@H]1C[C@@H](O)C=C[C@@]31CCN(C)C2 [Galantamine hydrobromide, reference compound]	–	–	–	–	–	1570 ± 190 µg/mL	4320 ± 370 µg/mL	320 ± 30 µg/mL	820 ± 90 µg/mL	5170 µg/mL

— publication PMC7982595 (Frontiers in Pharmacology, 2021)
